Experimental data published in ChEMBL document CHEMBL3217485, “Understanding and overcoming aminoglycoside resistance caused by N-6'-acetyltransferase” (Medchemcomm, 2012).
In brackets after ≈: the same amount, converted by molar mass. Values belong to the molecule of their own block, whether it stands above or below them.

How the values were obtained:
[1] = Inhibition of AAC(6')-lb (unknown origin)
[2] = Binding affinity to AAC(6')-lb (unknown origin)
[3] = Inhibition of AAC(6')-ly (unknown origin) in presence of kanamycin A
[4] = Inhibition of AAC(6')-ly (unknown origin) in presence of ribostamycin
[5] = Binding affinity to biotinylated Escherichia coli 16S rRNA A-site
[6] = Ratio of Kcat to Km for AAC(6')-li (unknown origin)
[7] = test system: Escherichia coli; experiment: Antibacterial activity against Escherichia coli ATCC 25922; type: functional
[8] = Activity at AAC(6')-li (unknown origin)

- Ki [1]: 500 nM
- Kd [2]: 950 nM
Compound: CC(C)(COP(=O)(O)OP(=O)(O)OC[C@H]1O[C@@H](n2cnc3c(N)ncnc32)[C@H](O)[C@@H]1OP(=O)(O)O)[C@@H](O)C(=O)NCCC(=O)NCCSCC(=O)NCc1ccc(O[C@H]2C[C@H](N)C[C@@H]2N)cc1

- Kii [3]: 23 µM
- Kis [3]: 31 µM
- Kii [4]: 92 µM
- Kis [4]: 17 µM
Compound: N=C(N)N[C@H]1[C@@H](O[C@H]2[C@H](O[C@@H]3O[C@H](CO)[C@@H](O)[C@H]3O)[C@@H](O)[C@H](NC(=N)N)C[C@@H]2NC(=N)N)O[C@H](CNC(=O)CCN)[C@@H](O)[C@@H]1O

- kcat/Km [6]: 1.6 ×10⁴ /M/s
- MIC [7]: 31 µM (≈ 24.8 µg/mL)
- Km [8]: 53.4 µM
- kcat [8]: 0.86 s⁻¹
Compound: NC[C@H]1O[C@H](O[C@H]2[C@H](OCC(=O)NCCCNC(=O)CO[C@@H]3[C@@H](O)[C@H](N)C[C@H](N)[C@H]3O[C@H]3O[C@H](CN)[C@@H](O)[C@H](O)[C@H]3N)[C@@H](O)[C@H](N)C[C@@H]2N)[C@H](N)[C@@H](O)[C@@H]1O
- Kd [5]: 1100 nM
